{"source": "patent US20040258772A1", "about": "“Methods of treating angiogenesis, tumor growth, and metastasis” (priority 2002, published 2004)", "key": {"[1]": {"system": "Human adenocarcinoma cells (A549)", "format": "cell-based", "conditions": "250 ppm CO", "source_text": "(§1) A human adenocarcinoma cell line designated A549, a murine mesothelioma cell line designated AC29, and a human colon cancer cell line designated HCT were utilized for the studies described herein.\n(§2) Cell cultures and mice were exposed to CO at a concentration of 250 ppm. Briefly, 1% CO in air was mixed with air (21% oxygen) in a stainless steel mixing cylinder and then directed into a 3.70 ft^3 glass exposure chamber at a flow rate of 12 L/min. A CO analyzer (Interscan, Chatsworth, Calif.) was used to measure CO levels continuously in the chamber. CO concentrations were maintained at 250 ppm at all times. Cell cultures and mice were placed in the exposure chamber as required.\n(§3) For [^3H] thymidine incorporation studies, cells were serum-starved overnight and then stimulated with 20% serum containing 5 mCi/ml [^3H] thymidine (New England Nuclear, Boston, Mass.). [^3H] thymidine incorporation was measured by scintillation spectroscopy. CO inhibits the growth of cancer cells in vitro Human and mouse cancer cell lines were used to investigate the effect of CO on growth rates of the cells in culture. Human adenocarcinoma cells (A549), mouse mesothelioma cells (AC29), and A549 and AC29 cells transformed with the heme oxygenase-1 (HO-1) gene (which causes the cells to overexpress HO-1) were exposed to low levels of CO (250 ppm) in culture. Four-day growth curves were generated."}, "[2]": {"system": "p21, p27, PCNA, Cdc25b, cyclin D1 in A549 cells", "test": "Immunoblot of growth/cell cycle proteins", "format": "cell-based, human", "procedure": "Immunoblotting was performed to investigate protein expression by standard methods known in the art. Antibodies were purchased from Santa Cruz, StressGen and Cell Signaling.\nTo investigate CO-induced changes in the expression of various growth/cell cycle proteins in cancer cells, A549 cells were exposed for 24 hours to air or CO (250 ppm). After this period of exposure, cell lysates were collected from the cells and changes in protein expression in the lysates were examined by immunoblot."}, "angiogenesis": {"system": "angiogenesis", "test": "Matrigel angiogenesis assay, FGF/heparin Matrigel implanted under the skin", "format": "in vivo, C57/B16 mice", "source_text": "(§4) For human tumor studies, female SCID mice (weighing 20 to 30 g) were purchased from Taconic (White Plains, N.Y.) and allowed to acclimate for 1 week prior to experimentation. For murine tumor and matrigel studies, male CBA and C57B1/6 mice (weighing 25 to 30 g) were purchased form Jackson Labs (Bar Harbor, Me.) and also were allowed to acclimate for 1 week prior to experimentation.\nas §2\nThe effect of CO (250 ppm) on angiogenesis was investigated using a Matri gel […] angiogenesis assay. A solubilized basement membrane matrix (Matrigel™) containing 20 ng/ml growth factor (FGF) and heparin was implanted under the skin of C57/B16 mice. The mice were then exposed to air or CO in air for two weeks. After the two-week period, the Matrigel™ was removed and examined.\nIn a separate experiment, Matrigel™ deposits containing 20 ng/ml growth factor (FGF) and heparin were implanted under the skin of C57/B16 mice, and the mice were exposed to air or CO (250 ppm) in air for 21 days. Photomicrographs of hematoxylin- and eosin-stained paraffin sections from the resected subcutaneous FGF-Matrigel deposits were prepared. Prominent angiogenesis was evident in deposits from air-exposed mice, as was a front of infiltrating vascular cells organizing into blood filled micro-capillaries (data not shown)."}, "HTC cells": {"system": "HTC cells", "test": "[3H] thymidine uptake in wild-type and p21-deficient colon cancer cells", "format": "cell-based, human", "conditions": "p21-/- HTC cells versus wild type", "procedure": "as §3\nWild-type (Wt) HTC cells and HTC cells deficient in p21 (p21−/−), a gene known to control cell growth, were exposed to air or CO to determine whether p21 is involved in CO-induced growth arrest (FIG. 6). As indicated by [^3H] thymidine uptake, CO-induced growth arrest appears less marked in HTC cells that are deficient in p21."}, "[3]": {"system": "mouse mesothelioma cells (AC29)", "test": "Growth curves of cancer cells in culture exposed to CO", "format": "cell-based", "source_text": "as §1, §2\nas §3, with “Four-day growth curves were generated.” left out"}, "A549 cells [4]": {"system": "A549 cells", "test": "Adenocarcinoma (A549) subcutaneous tumor model", "format": "in vivo, SCID mice", "source_text": "as §4, §2\nThe second model was an adenocarcinoma (A549) model, wherein SCID mice were injected with 1×10^6 A549 cells subcutaneously. These animals were continuously exposed to air or to 250 ppm of CO for a period of six weeks. After the six-week period, the volume of the tumors that developed in the mice was evaluated."}, "[5]": {"system": "VEGF production by A549 cells", "test": "VEGF production by ELISA", "format": "cell-based, human", "conditions": "CO plus air for 24 to 48 hours vs air alone", "procedure": "ELISA kits for VEGF levels were purchased from R&D Systems and used according to the manufacturer's directions.\nWhether CO inhibits production of VEGF, a growth factor that contributes to angiogenesis by promoting blood vessel growth, was investigated. A549 cells were exposed to air or CO plus air for 24 to 48 hours in vitro, and VEGF production by A549 cells was detected using an enzyme-linked immunosorbent assay (ELISA)."}, "AC29 cells": {"system": "AC29 cells", "test": "Mesothelioma (AC29) survival model, cells injected intraperitoneally", "format": "in vivo, CBA mice", "source_text": "as §4, §2\nThe first was a mesothelioma (AC29) model, wherein CBA mice were injected with 1×10^6 AC29 cells intraperitoneally and monitored for survival when continuously exposed to air or to an atmosphere containing 250 ppm CO for a period of six weeks. […] The survival rate of the CO-exposed mice was increased by greater than 90% as compared to air-exposed mice. The arrow shown in FIG. 3 denotes a time point at which half of the CO-exposed mice were removed from the CO chamber. Half of the mice were removed at that time to determine whether the effects of CO on mouse survival require continuous exposure to CO. A significant number of mice (50%, p<0.02) that were removed from the CO-containing atmosphere remained alive at the end of the experiment, whereas all air treated mice died by day 36. The number of mice in each group was 12 to 20 animals.\nIn another experiment, it was shown that CO-exposed mice survived for greater than 65 days (data not shown)."}, "A549 cells [6]": {"system": "A549 cells", "test": "[3H] thymidine uptake, cGMP dependence of CO-induced growth arrest", "format": "cell-based, human", "conditions": "CO 250 ppm 3 hours before and 24 hours after serum; compared to CO alone", "procedure": "as §3\nThe cellular mechanisms by which CO causes inhibition were also investigated. To investigate whether CO-induced growth arrest is CGMP dependant, A549 cells were exposed to air, CO, CO+ODQ, or CO+Rp-8-BR. […] The ability of the cells to proliferate was determined by measuring the uptake of [3H] thymidine by the cells (FIG. 5). Cells were exposed to CO (250 ppm) for 3 hours prior to the addition of serum and [3H] thymidine (5 mCi/ml). After the addition of serum and [3H] thymidine, cells were maintained in CO for 24 hours. Cells were then rinsed, fixed and examined by scintillation spectroscopy."}, "[7]": {"system": "A549 cells transformed to overexpress HO-1", "test": "A549 HO-1 overexpressing tumor model", "format": "in vivo, mice", "conditions": "50 μmol/kg s.c., data not shown", "procedure": "The third model was also an A549 model, wherein mice were injected with A549 cells transformed to overexpress HO-1 (HO-1 clones A5 and L1). After the six-week period, the size and volume of tumors that developed in the mice were evaluated. […] Using Western blot analysis, the relative decrease in volume was determined to correlate with a relative decrease in expression of cyclin D1, a protein involved in the regulation of cell growth (data not shown)."}}, "note": "“Also recorded” adds a separate entry of the source."}
{"smiles": "[C-]#[O+]", "note": "[CO, carbon monoxide]", "values": [{"measurement": "toxicity as cause of reduced cell numbers", "setting": "[1]; A549 and AC29 cultures, confluency eventually achieved", "result": "not due to toxicity"}, {"measurement": "reduction in cell number", "setting": "[1]; by three days, compared to controls", "result": "> 40", "unit": "%"}, {"measurement": "expression of p21, p27, PCNA, Cdc25b and cyclin D1", "setting": "[2]; 250 ppm CO for 24 hours", "result": "causes changes in expression"}, {"measurement": "expression of p21", "setting": "[2]; CO for 4, 8 and 24 hours", "result": "causes changes in expression"}, {"measurement": "cellularity and blood in Matrigel deposits", "setting": "angiogenesis; 250 ppm CO in air for 21 days", "result": "paucity of cellularity and blood"}, {"measurement": "angiogenesis in Matrigel deposits", "setting": "angiogenesis; 250 ppm CO in air for 21 days, H&E sections", "result": "No angiogenesis was evident"}, {"measurement": "angiogenesis in Matrigel", "setting": "angiogenesis; 250 ppm CO in air for two weeks, data not shown", "result": "no new blood vessel growth"}, {"measurement": "CO-induced growth arrest ([3H] thymidine uptake)", "setting": "HTC cells", "result": "less marked"}, {"measurement": "reduction in cell number", "setting": "[3]; 250 ppm CO, by three days, compared to controls", "result": "> 40", "unit": "%"}, {"measurement": "proliferation after removal from CO-containing atmosphere", "setting": "[3]; cultures removed from CO at day 5", "result": "proliferate at a normal rate"}, {"measurement": "proliferation of AC29 cells", "setting": "[3]; six-day growth curve, CO vs air", "result": "inhibits the proliferation"}, {"measurement": "tumor volume", "setting": "A549 cells [4]; CO plus air vs air alone", "result": "reduced"}, {"measurement": "reduction of tumor volume", "setting": "A549 cells [4]; continuous 250 ppm CO for six weeks, compared to air-exposed mice", "result": "greater than 50%"}, {"measurement": "VEGF production", "setting": "[5]", "result": "substantially less VEGF; also recorded: inhibits"}, {"measurement": "increase of survival rate", "setting": "AC29 cells; 250 ppm CO, compared to air-exposed mice", "result": "greater than 90%"}, {"measurement": "survival", "setting": "AC29 cells; CO treatment delayed until one week after injection of mesothelioma cells", "result": "prolonged the lives; also recorded: prolongs survival"}, {"measurement": "survival time", "setting": "AC29 cells; another experiment, data not shown", "result": "greater than 65 days"}, {"measurement": "survival", "setting": "AC29 cells; continuous 250 ppm CO for six weeks vs air", "result": "lived longer; also recorded: prolongs survival"}, {"measurement": "mice removed from CO-containing atmosphere alive at end of experiment", "setting": "AC29 cells; half of CO-exposed mice removed from chamber, p<0.02, all air treated mice died by day 36", "result": 50, "unit": "%"}, {"measurement": "uptake of [3H] thymidine (proliferation)", "setting": "A549 cells [6]", "result": "growth arrest"}]}
{"smiles": "C=Cc1c2[n-]c(c1C)/C=c1\\[n-]/c(c(C)c1C=C)=C\\c1[n-]c(c(CCC(=O)O)c1C)/C=c1\\[n-]c(c(C)c1CCC(=O)O)=C2.[Sn+4]", "note": "[tin protoporphyrin]", "values": [{"measurement": "effect on the inhibition of tumor growth by HO-1 overexpression", "setting": "[7]", "result": "reversible"}]}
